The test system of one series is MCF-7/DX. As to the kind of experiment: Antiproliferative activity vs resistant cell MCF-7/DX. The class given is cell-based. The conditions noted are these: Homo sapiens, MCF7/DX; resistant cell (doxorubicin-resistant, P-glycoprotein overexpressing); read-out: IC50 +/− SD, MCF-7/DX. As to the method:
(§1) The test used was the sulforodamine B test used for screening anticancer products at the National Cancer Institute (Skehan, 1990). The molecules at scalar concentrations over a range from 500 μM to 0.97 μM, were incubated in parallel with different human cell lines for 24 hours. After removing the products, cell survival was investigated after another 48 hours with the NCI test. The antiproliferative capacity of the compounds was quantified in terms of IC50±SD (concentration of the molecule that inhibits 50% of cell survival) processed using a curve fitting program (De Lean et al., 1978).
(§2) The cytotoxicity of the molecules on tumour lines resistant to chemosensitising activity was assessed on various tumour cell lines overexpressing P-glycoprotein and resistant to doxorubicin (100-fold) and cross-resistant to daunorubicin, actinomycin D, mitoxantrone, vincristine, vinblastine, taxol, colchicine, and etoposide. The cytotoxicity of the products was assessed using the same test adopted for the sensitive tumour cells.

A further series concerns LoVo/DX. As to the kind of experiment: Antiproliferative activity vs resistant cell LoVo/DX. It counts as cell-based. As to conditions: Homo sapiens, resistant cell (doxorubicin-resistant, P-glycoprotein overexpressing), read-out: IC50 +/− SD, LoVo/DX. How it is done:
as §1, §2

Series [1] has as its system BMEC. As to the kind of experiment: Cytotoxicity on endothelial cells (BMEC). It counts as cell-based, bovine.
The test system of series [2] is BMEC. As to the kind of experiment: Chemotactic assay with the Boyden chamber on BMEC. It counts as cell-based, bovine. How it is done:
For the antiangiogenic activity the chemotactic assay with the Boyden chamber was performed (Werner F., Goodwin R. H. and Leonard E. J., Journal of Immunological Methods 1980; 33, 239-247), using both bovine aortal endothelial cell (BAEC) cultures and bovine medullary endothelial cell (BMEC) cultures. The assays were performed at IC0 (maximum non-cytotoxic concentration) and the results expressed as % inhibition of migration across a porous filter in response to a chemotactic stimulus (1% bovine serum in DMEM culture medium). This finding was obtained by direct cell count under the optical microscope, and the percentage migration inhibition was calculated according to the formula (T−C/C)×100, where T=mean number of cells migrating in the sample and C=mean number of cells migrating in the control. The control consisted of cells which migrated towards the serum, not treated with the study molecules, and included in every chemotaxis experiment. The data refer to the readings of 5 microscopic fields/well in 4 independent chemotaxis wells per sample.

The values below come from patent publication US20050124647A1, “Tricyclic derivatives of indole with antiangiogenic activity” (Sigma-Tau Industrie Farmaceutiche Riunite S.p.A., priority 2000, published 2005).

Molecules are shown by their SMILES. Like-named read-outs stand apart in the source and are kept apart here.

In the case of `CC1(C)OCC(C2c3c([nH]c4ccccc34)C(c3c[nH]c4ccccc34)C3OC(C)(C)OC32)O1` (racemic) [ST1372, 1-(indol-3-yl)-2,3-O-isopropylidene-4-(2,3-O-isopropylidene-ethyl)-tetra-hydrocarbazole], the IC50 in the series with MCF-7/DX was 26.9 µM; in the series with LoVo/DX, 26.3 µM.
`c1ccc2c(C3CCCCc4c3[nH]c3ccccc43)c[nH]c2c1` (racemic) [ST1381, 1-(indol-3-yl)-indo[2,3a]-cycloheptan.]: the figures for the IC50 with MCF-7/DX and in the series with LoVo/DX were 28.4 µM and 25.2 µM, respectively. The “IC0 (maximum non-cytotoxic concentration)” value in the series on BMEC [1] came to 30 µM. Besides, the entries for the “activity on chemotaxis of endothelial cells (in words)” value in the series with BMEC [2] and in the series on BMEC [2] (listed as ST 1381) were “active” and “better anti-chemiotactic compound”, respectively.
Regarding `c1ccc2c(C3CCCCc4[nH]c5ccccc5c43)c[nH]c2c1` (racemic) [ST1621, 5-(indol-3-yl)-indo(2,3a]-cycloheptan.], the figures for the IC50 in the series with MCF-7/DX and in the series with LoVo/DX were 68.3 µM and 23.8 µM, respectively. Moreover, in the series on BMEC [1], the “IC0 (maximum non-cytotoxic concentration)” value was found to be 0.1 µM.
In the case of `c1ccc2c(C3CCCc4[nH]c5ccccc5c43)c[nH]c2c1` (racemic) [ST1729, 4-(1H-indol-3-yl)-tetrahydro-1H-carbazole], in the series with BMEC [1], the “IC0 (maximum non-cytotoxic concentration)” value was 25 µM.
The same measure, in the same setting: the result for `c1[nH]c2cc3c(cc2c1C1CCCCc2c1[nH]c1cc4c(cc21)OCO4)OCO3` (racemic) [ST1749, 1-(5″,6″-methylendioxy-indol-3-yl)-5′,6′-methylendioxy-indo[2,3-a]-cycloeptane] reads 100 µM.
Turning to `c1[nH]c2cc3c(cc2c1C1CCCc2c1[nH]c1cc4c(cc21)OCO4)OCO3` (racemic) [ST1751, 1-(5′,6′-methylendioxy-1H-indol-3-yl)-6,7-methylendioxy-tetrahydro-1H-carbazole], the IC50 in the series on MCF-7/DX was 58.6 µM.
As to `c1ccc(COc2ccc3[nH]cc(C4CCCCc5c4[nH]c4ccc(OCc6ccccc6)cc54)c3c2)cc1` (racemic) [ST1765, 1-(5″-benzyloxy-indol-3-yl)-5′-benzyloxy-indo[2,3a]-cycloheptan], the results for the IC50 with MCF-7/DX and with LoVo/DX were 24.8 µM and 17 µM, respectively.
Turning to `c1ccc(COc2ccc3[nH]cc(C4CCCCc5[nH]c6ccc(OCc7ccccc7)cc6c54)c3c2)cc1` (racemic) [ST1778, 5-(5″-benzyloxy-indol-3-yl)-5′-benzyloxy-indo[2,3a]-cycloheptan.], the IC50 in the series on MCF-7/DX was found to be 71 µM; in the series with LoVo/DX it was 65.1 µM. For the same compound, the “IC0 (maximum non-cytotoxic concentration)” value with BMEC [1] stood at 25 µM.
As for `Oc1ccc2[nH]cc(C3CCCCc4c3[nH]c3ccc(O)cc43)c2c1` (racemic) [ST1783, 1-(5″-hydroxy-1H-indol-3-yl)-5′-hydroxy-indo[2,3a]-cycloheptan], the IC50 with MCF-7/DX is 39 µM. The “IC0 (maximum non-cytotoxic concentration)” value in the series on BMEC [1] was 10 µM.
